Experimental data reported in patent US20190030053A1, “COMPOSITION FOR INCREASING EXPRESSION OF PGC-1alpha” (BENEBIOSIS CO., LTD., priority 2016, published 2019).

Experiments:
[1] = tested on: Huntington's disease model mice (R6/2); assay: Rotarod travel test in Huntington's disease models; type: in vivo, mouse; conditions: R6/2 mice, oral 0.1 mg/kg/day
Excerpt: In order to investigate the changes in gene expression and cognitive ability by the treatment with SL (3′-SL & 6′-SL) compositions in Huntington's brain disease model, 4-week-old mice were purchased from Central Lab Animal (Korea). Water was freely accessible, and a commercially available pellet feed (Dooyeul Biotech, Korea) was given for one week. At 5 weeks of age, the mice were divided into three groups (composed of eight mice for each group): Eight 5-week-old male c57/BL6 mice (normal mice; initial body weight, average 25.3±4.3 g) treated with a normal diet were used for a control group. […]
In addition, the behavior improvement was evaluated through the rotarod travel time changes of the (Huntington's disease model) group, (Huntington's disease model+3′-SL) group, and (Huntington's disease model+6′-SL) group, compared with the normal mouse with a normal diet. […] The rotarod travel time was measured by using a rotarod device (rod accelerating at a revolution speed of 4-40 rpm through 3 minutes, Jungdo Instruments, Korea). After 4-week-old mice were practiced on the rotarod test, the rotarod test was performed from 5 weeks of age, and the mean time to fall was measured. […]

[2] = tested on: ob mouse (C57BL/6J-ob/ob) models; assay: Topical fat removal by meso roller administration in ob mouse models; type: in vivo; conditions: 0.1 M SL, meso roller on day 0 and day 4, observed on day 7
Experimental: In addition, in the ob mouse (C57BL/6J-ob/ob) models fed with a high-fat diet without SL treatment, the topical fat removal effect by SL (3′-SL & 6′-SL) administration using a meso roller (0.5 mm, INTO MR, Intomedi Inc.) was investigated. Specifically, the hairs on the dorsal side of the […] were shaved, and 0.1 M SL in the saline buffer was applied to the skin, and was absorbed into the skin by rubbing with the meso roller. The control group was tested by the same method except that the buffer was used without SL. […] In FIG. 15, 3′-SL, 6′-SL, and CTL represent the 3′-SL administration group, the 6′-SL administration group, and the control group, respectively. After feeding with a high-fat diet for 10 weeks, SL (3′-SL & 6′-SL) compositions were topically administered on day 0 and day 4 using the meso roller, and then dermoscopy observation was conducted on day 7. The observation results are shown.

[3] = tested on: mouse aortic smooth muscle cells (MASMs); assay: Intracellular H2O2 (ROS values, H2DCFDA) in MASMs of arteriosclerosis model mice; type: cell-based; conditions: MASMs from PGC-1α+/+ApoE−/− mice; SL added to culture liquid
Experimental: For cell-level tests, mouse aortic smooth muscle cells (MASMs) were isolated from the control group fed with a high-fat diet (Rodent Diet with 60 kcal % fat) without SL administration (Griendling et al., 1991), and the SL (3′-SL & 6′-SL) compositions were added to the culture liquid, followed by comparison. For intracellular H2O2 measurement (ROS values), the cells were cultured in 12-well culture plates immersed in 0.1% bovine calf serum. The intracellular ROS values were measured using H2DCFDA. For assay, the cells were cultured together with H2DCFDA in HBSS buffer for 30 minutes. The cells were trypsinized, washed, and lysed in HBSS. The fluorescence values were measured immediately by a CytoFluor plate reader (FIG. 19a).
In FIGS. 19a and 19b, MASMs were extracted from the model mouse (PGC-1α^+/+ApoE^−/−) control group, and the SL (3′-SL & 6′-SL) compositions were added to the culture liquid to conduct comparison.
FIGS. 19a and 19b show the measurement results of intercellular H2O2 (ROS values) (FIG. 19a) and the measurement results of mitochondrial superoxide production (FIG. 19b). MASMs were extracted from the model mice (PGC-1α^+/+ApoE^−/−), and the SL (3′-SL & 6′-SL) compositions were added to the culture liquid to conduct comparison.

Structure (SMILES) | rotarod travel time vs SL non-administration group [1] | topical fat removal (dermoscopy) vs negative control portion [2] | intracellular H2O2 (ROS values) [3]
CC(=O)N[C@H]1[C@H]([C@H](O)[C@H](O)CO)O[C@@](OC[C@H]2O[C@@H](O[C@H]3[C@H](O)[C@@H](O)[C@H](O)O[C@@H]3CO)[C@H](O)[C@@H](O)[C@H]2O)(C(=O)O)C[C@@H]1O [6′-SL, α-NeuNAc-(2→6)-β-D-Gal-(1→4)-D-Glc] | increased | topical fat was removed | dropped the ROS values
CC(=O)N[C@H]1[C@H]([C@H](O)[C@H](O)CO)O[C@@](O[C@H]2[C@@H](O)[C@@H](CO)O[C@@H](O[C@H]3[C@H](O)[C@@H](O)C(O)O[C@@H]3CO)[C@@H]2O)(C(=O)O)C[C@@H]1O (stereo partly drawn) [3′-SL, α-NeuNAc-(2→3)-β-D-Gal-(1→4)-D-Glc] | less than that of 6′-SL | relatively low compared with 6′-SL | dropped the ROS values
